# Source: paper PMC9914633 (International Journal of Environmental Research and Public …, 2023)
# Target: T1, xoSNAT1 (Xanthomonas oryzae, UniProt A0ACG7R854)
# T1 construct: gene DZA53_20490
# Details: serotonin 0.5 mM; acetyl-CoA 0.5 mM; 100 mM potassium phosphate pH 8.8; 35 °C
smiles,measurement,value
NCCc1c[nH]c2ccc(O)cc12 [serotonin],LC-MS/MS of serotonin and product,"GST and xoSNAT2 have no SNAT activity, while xoSNAT1 showed only low activity"
